Assay results as given in patent publication US20080153792A1, “Drug Identification and Treatment Method” (priority 2006, published 2008).
Marks after values point to notes of the source that are not given here.

Tests used:
[1] = test system: NF-κB in nuclei from spleen cells; experiment: kinetic analysis of NF-kB inhibition in vivo after LPS, Example 9; design: species or system mouse; conditions: about 40 mg/kg i.p. 24 h before LPS
Method: Kinetic analysis of NF-kB inhibition in vivo. […] The drug was injected 24 hours before intraperitoneal injection of bacterial LPS (about an LD50/24). The study used two groups of 12 animals, vehicle control or drug administered 24 hours before LPS challenge. Spleens were harvested from 3 animals from both groups just before LPS challenge and at 1.5, 2.0 and 2.5 hours after administration of LPS.
Maximum NF-κB activation after LPS administration occurred at 1.5 hours in the vehicle controls, which was 4-fold increased over the pre-LPS level of activated NF-κB. The values for the vehicle control and drug treated animals are relative optical density units from ELISA measurement of NF-κB in nuclei from spleen cells.

[2] = test system: BALB/C mice, TNP-OVA sensitized; experiment: reporter antigen popliteal lymph node (PLN) assay; format: in vivo, mouse; conditions: for average number of lymphocytes in PLNs: day 5
Excerpt: Analysis of immune suppression. Glucocorticoid steroids such as dexamethasone or hydrocortisone are typically immune suppressive and have significant toxicities associated with their use. Immune suppression was examined in a reporter antigen popliteal lymph node assay in mice essentially as previously described (C. Goebel et al., Inflamm. Res., 45(Suppl. 2):S85-S90, 1996; R. Pieters et al., Environmental Health Perspectives 107(Suppl. 5):673-677,1999). […] In this protocol, the vehicle was 0.1% carboxymethylcellulose, 0.9% saline, 2% tween 80 and 0.05% phenol, which contained 17α-ethynylandrost-5-ene-3β,7β,17β-triol in suspension in drug treated animals. Assessment of activity included (1) measuring suppression of numbers of total lymphocytes, antigen specific IgM, IgG1 and IgG2a antibody secreting cells (ASC) (ELISPOT assay) in popliteal lymph node cells; (2) analysis of cell surface marker (CD4, CD8, CD19, F480, CD80, CD86) expression by flow cytometry of living cells in suspension; and (3) IL-4, TNFα and IFNγ production by lymphocytes in vitro (ELISA).
Groups (n=5 per group) of specific pathogen free BALB/C mice were used. The Positive control group was treated with vehicle (oral gavage) and 5 μg/day dexamethasone by subcutaneous injection to induce immune suppression. Vehicle control animals (negative control) were treated with vehicle alone (oral gavage). One group of animals was treated with 17α-ethynylandrost-5-ene-3β,7β,17β-triol at 0.1 mg/day by oral gavage. Another group was treated with 1 mg/day of 17α-ethynylandrost-5-ene-3β,7β,17β-triol was administered to the animals oral gavage. The results were analyzed by two-tailed Student's t-test with equal variance. The animals were injected in the right hind footpad with 50 μL of freshly prepared sensitizing dose of TNP-OVA. Dexamethasone (decadron phosphate injection; dexamethasone sodium phosphate) was administered by subcutaneous injection into the nape of the neck daily, immediately following sensitization with TNP-OVA. 17α-Ethynylandrost-5-ene-3β,7β,17β-triol was given immediately afterwards by gavage. Five days after injection of TNP-OVA, blood was drawn by orbital puncture, and the mice were euthanized by cervical dislocation and popliteal lymph nodes were removed and separated from adherent fatty tissue. Single cell suspensions were prepared, resuspended in 1 mL PBS-BSA (1%) and counted. Cell numbers, IL-4, IL-5 and IFNγ were measured.

MG-63 cells = experiment: reversal of glucocorticoid effects in MG-63 osteosarcoma cells; format: cell-based, human; conditions: 1 nM compound; 7 hours; 30 nM dexamethasone
db/db C57BL/Ks mice = experiment: glucose lowering in diabetic db/db mice; format: in vivo, mouse
Method: Glucose lowering and amelioration of insulin resistance. Glucose lowering effects and amelioration of insulin resistance was assessed in the diabetic db/db mouse model of human diabetes and insulin resistance. In these studies, db/db C57BL/Ks mice of approximately 8 to 10 weeks of age were divided into groups of 10 each and then treated with a vehicle control (no drug) or 17α-ethynylandrost-5-ene-3β,7β,17β-triol by oral gavage. The compound was administered twice a day at 20 mg/kg/day (10 mg/kg dose administered twice per day), 40 mg/kg/day (20 mg/kg dose administered twice per day) or 80 mg/kg/day (40 mg/kg dose administered twice per day) for up to 28 days. Blood glucose levels were monitored twice a week during the dosing period, using a minute amount of blood (nick tail bleeds) to measure the concentration of glucose by glucometer strips. At specific times during the dosing period (day 14 and day 28), an oral glucose tolerance test (OGTT) was also performed by administering a standard oral dose of 1 g/kg glucose (approximately 40 mg in a […]) and then the fluctuation of blood glucose levels was monitored quickly thereafter after at 15, 30, 60 and 120 minutes after the glucose dose. […] Blood glucose approached 380 mg/dL in the vehicle control group and was <230 mg/dL after at least 10 days of dosing in the drug treated group.
A treatment protocol similar to that described in example 15 was performed with db/db mice that were younger than the animals described in example 15. The animals (n=8 to 10 per group) were treated with 17α-ethynylandrost-5-ene-3β,7β,17β-triol or vehicle by oral gavage twice per day at 40 mg/kg/day (20 mg/kg dose given twice per day) and 80 mg/kg/day (40 mg/kg dose given twice per day). At the start of dosing, the animals were 6 weeks of age, before the onset of elevated glucose levels or hyperglycemia. Dosing with vehicle or drug was maintained for 32 days to determine the effect of the treatments on the onset and rate of progression of hyperglycemia in the animals. In the control group, the onset of hyperglycemia was observed after 25 days of dosing and it continued to worsen, i.e., blood glucose levels rose from normal to frank hyperglycemia, through the end of the 32 day dosing period.

[3] = metabolic stability in liver microsomes: rat; conditions: 30 min
Method: Metabolic stability. The metabolic stability of selected compounds was examined in vitro using microsomes obtained from liver tissue according to the following protocol.
The protocol was performed as follows. (1) Prepared 0.5 mM compound in acetonitrile/water 35:65. […] (2) Set up samples as follows. […] Tubes for each compound was follows: 1-0′ 2-0′ 3-0′ 4-0′* 5-0′* 6-5 μM 7-1 μM 8-30′ 9-30′ 10-30′ where * designated denatured microsome negative control reaction tubes. For additional compounds numbering was started at 11, 21, 31, etc. (3) Added 315 μL PBS (pH 7.3-7.5) to each tube. Added 10 μL of the appropriate test article solution to each tube. (4) The internal standard/acetonitrile solution. (5) The NADPH regenerating system (NRS) was 125 μL per tube. To PBS added 1.7 mg/ml NADP, 7.8 mg/ml glucose-6-phosphate, 6 units/mL glucose-6-phosphate dehydrogenase. Fresh NRS for each experiment was kept on ice until use. (6) Each reaction used 125 μL of NRS in each tube. (7) Removed liver microsome preparation from −80° C. freezer and thawed in a room temperature water bath. The microsomal preparation was at a concentration of 20 mg/ml. […] (13) The methyl-t-butyl ether was transferred from each tube to a fresh tube and the solvent was evaporated ether under nitrogen and the precipitate was then resuspended in 100 μL acetonitrile/water 35:65 and analyzed by LCMS.

SMILES: C#C[C@]1(O)CC[C@H]2[C@@H]3[C@@H](O)C=C4C[C@@H](O)CC[C@]4(C)[C@H]3CC[C@@]21C [17α-ethynylandrost-5-ene-3β,7β,17β-triol]
- activated NF-κB in spleen cell nuclei (ELISA) ([1]; 0 hours (just before LPS)): 22 relative optical density units
- activated NF-κB in spleen cell nuclei (ELISA) ([1]; 1.5 hours after LPS): 2 relative optical density units
- activated NF-κB in spleen cell nuclei (ELISA) ([1]; 2.0 hours after LPS): 7 relative optical density units
- activated NF-κB in spleen cell nuclei (ELISA) ([1]; 2.5 hours after LPS): 9 relative optical density units
- average number of lymphocytes in PLNs ([2]; 0.1 mg/day by oral gavage): 11.1×10^6 lymphocytes per lymph node
- average number of lymphocytes in PLNs ([2]; 1 mg/day by oral gavage): 8.2×10^6 lymphocytes per lymph node
- IFNγ, IL-4 and IL-5 levels compared to the vehicle control group ([2]; compound 1.0 mg/day and 0.1 mg/day oral, dexamethasone 5 μg/day s.c.): increased
- reversal of the decrease in osteoprotegerin synthesis (MG-63 cells): completely reversed
- peak glycemic excursion in OGTT (db/db C57BL/Ks mice; 80 mg/kg b.i.d. for 28 days, 30-min post-oral glucose, vehicle approximately 400 mg/dL): < 200 mg/dL
- progression into the hyperglycemic state (db/db C57BL/Ks mice; 6 week old male db/db mice, 40 mg/kg): completely blocked progression
- basal blood glucose hyperglycemic levels (db/db C57BL/Ks mice; 8 week old male db/db mice, 40 mg/kg dose group, twice-a-day, apparent after 10 days): markedly suppressed
- blood glucose (db/db C57BL/Ks mice; after at least 10 days of dosing, vehicle approached 380 mg/dL): < 230 mg/dL
- levels of glucose by the end of the 32 day dosing period (db/db C57BL/Ks mice; db/db mice 6 weeks of age at start, 40 mg/kg/day and 80 mg/kg/day oral, twice per day): did not rise above normal levels
- decrease in hyperglycemic blood glucose levels (db/db C57BL/Ks mice; db/db mice 8 to 10 weeks of age, oral gavage twice a day): approximately 40%
- glucose intolerance in OGTTs compared to vehicle (db/db C57BL/Ks mice; treated db/db animals): significant amelioration of glucose intolerance
- parent remaining, rat microsome instead of mouse preparation [3]: 86%* (30 min)
